The source of these data is patent US8551984B2, “Aminopyrimidines as SYK inhibitors” (Merck Sharp & Dohme Corp., priority 2009, dated 2013).

Each structure is given as a SMILES string.

The assay deals with recombinant human SYK (GST-hSYK fusion protein) (Homo sapiens, UniProt P43405). Kind of assay: biochemical. The settings on record: rhSYK Activity.

From the text: Homogeneous Time-Resolved Fluorescence (HTRF) Assay for the Recombinant Human SYK Enzyme:

As for `Cc1cc(Nc2nccc(C(C)C)n2)cc(-c2cnc([C@]3(O)CC[C@@H](C(=O)OC(C)(C)C)CC3)s2)c1` [Example 33A-29], under “Table 33-A”, the IC50 (usually the concentration that gives 50% inhibition) was in the range of 100 to 1000 nM. Same read-out and setting: in the case of `Cc1cc(Nc2nccc(C)n2)cc(-c2cnc([C@]3(O)CC[C@@H](C(=O)O)CC3)s2)c1` [Example 33A-30] it was under 100 nM; in that of `Cc1cc(Nc2nccc(C)n2)cc(-c2cnc([C@]3(O)CC[C@H](C(=O)O)CC3)s2)c1` [Example 33A-31], under 100 nM; in that of `Cc1cc(Nc2nccc(C)n2)cc(-c2cnc(C3(O)CCC(CC(=O)O)CC3)s2)c1` (stereo not drawn) [Example 33A-32], under 100 nM. As for `Cc1cc(Nc2nccc(OC(C)C)n2)cc(-c2cnc([C@]3(O)CC[C@@H](C(=O)OC(C)(C)C)CC3)s2)c1` [Example 33A-34], the IC50 (Table 33-A) lay within 100 to 1000 nM. On the same count and under the same terms, the result for `COc1ccnc(Nc2cc(C)cc(-c3cnc(C4(O)CCC(C(=O)O)CC4)s3)c2)n1` (stereo not drawn) [Example 33A-35] reads under 100 nM; that for `COc1ccnc(Nc2cc(C)cc(-c3cnc([C@]4(O)CC[C@](C)(C(=O)O)CC4)s3)c2)n1` [Example 33A-38], under 100 nM; that for `COC(=O)C1CCC(O)(c2ncc(-c3cc(C)cc(Nc4ncc(F)c(C5CC5)n4)c3)s2)CC1(C)C` (stereo not drawn) [Example 33A-39], under 100 nM. As for `Cc1cc(Nc2ncc(F)c(C3CC3)n2)cc(-c2cnc(C3(O)CCC(C(=O)O)C(C)(C)C3)s2)c1` (stereo not drawn) [Example 33A-40], the 50% inhibitory concentration (IC50) (Table 33-A) is under 100 nM.

Take `Cc1cc(Nc2ncc(F)cn2)cc(-c2cnc(C3(O)CCC(C(=O)O)C(C)(C)C3)s2)c1` (stereo not drawn) [Example 33A-45]: the IC50 (Table 33-A) fell in the range of 100 to 1000 nM.

In the case of `CC(C)(O)c1cc(Nc2nccc(C(F)(F)F)n2)cc(-c2cnc(C3(O)CCC(C(=O)O)C(C)(C)C3)s2)c1` (stereo not drawn) [Example 33A-48], the half-inhibitory concentration (IC50) (Table 33-A) is under 100 nM. `COC(=O)C1CCC(O)(c2ncc(-c3cc(COC(C)=O)cc(Nc4nccc(C(F)(F)F)n4)c3)s2)CC1(C)C` (stereo not drawn) [Example 33A-49]: the 50% inhibitory concentration (IC50) (Table 33-A) was under 100 nM.

As to `COC(=O)C1CCC(O)(c2ncc(-c3cc(Nc4nccc(C(F)(F)F)n4)cc(C(F)F)c3)s2)CC1(C)C` (stereo not drawn) [Example 33A-55], where the note is “Table 33-A”, the 50% inhibitory concentration (IC50) was in the range of 100 to 1000 nM. The same measure, in the same setting: the result for `CC1(C)CC(O)(c2ncc(-c3cc(Nc4nccc(C(F)(F)F)n4)cc(C(F)F)c3)s2)CCC1C(=O)O` (stereo not drawn) [Example 33A-56] reads under 100 nM; that for `COC(=O)C1CCC(O)(c2ncc(-c3cc(Nc4nccc(C(F)(F)F)n4)cc(C4CC4)c3)s2)CC1(C)C` (stereo not drawn) [Example 33A-61], under 100 nM; that for `COC(=O)C1CCC(O)(c2ncc(-c3cccc(Nc4nccc(C(F)(F)F)n4)c3)s2)CC1(C)C` (stereo not drawn) [Example 33A-65], 100 to 1000 nM. On the same count and under the same terms, the result for `COC(=O)C1CCC(O)(c2ncc(-c3cc(C)cc(Nc4nccc(C)n4)c3)s2)CC1(C)C` (stereo not drawn) [Example 33A-69] reads under 100 nM; that for `COC(=O)C1CCC(O)(c2ncc(-c3cc(C)cc(Nc4nccc(C5CC5)n4)c3)s2)CC1(C)C` (stereo not drawn) [Example 33A-70], under 100 nM.

`Cc1cc(Nc2nccc(C3CC3)n2)cc(-c2cnc(C3(O)CCC(C(=O)O)C(C)(C)C3)s2)c1` (stereo not drawn) [Example 33A-71]: the IC50 (Table 33-A) was under 100 nM. Still for that read-out and setting: in the case of `Cc1cc(Nc2nccc(C(F)(F)F)n2)cc(-c2cnc(C3(O)CCC(C(=O)O)C(C)(C)C3C)s2)c1` (stereo not drawn) [Example 33A-75] it was under 100 nM.

On to `Cc1cc(Nc2nccc(C(F)(F)F)n2)cc(-c2cnc(C3(O)CC(C(=O)O)C3)s2)c1` (stereo not drawn) [Example 33B-1], for which the concentration for half-maximal inhibition (IC50) (Table 33B) was under 100 nM. The same measure, in the same setting: the result for `Cc1cc(Nc2nccc(C(F)(F)F)n2)cc(-c2cnc(C3(O)CCCC(C(=O)O)C(C)(C)C3)s2)c1` (stereo not drawn) [Example 33B-11] reads under 100 nM. Still for that read-out and setting: in the case of `Cc1cc(Nc2nccc(C)n2)cc(-c2cnc(C3(O)CCC(C(=O)O)C(C(C)C)C3)s2)c1` (stereo not drawn) [Example 33B-35] it was under 100 nM; in that of `Cc1cc(Nc2nccc(C)n2)cc(-c2cnc(C3(O)CCC(C(=O)O)C(c4ccccc4)C3)s2)c1` (stereo not drawn) [Example 33B-37], under 100 nM. For the molecule `Cc1cc(Nc2nccc(C(F)(F)F)n2)cc(-c2cnc(C3(O)CC4(CC(C(=O)O)C4)C3)s2)c1` (stereo not drawn) [Example 33C-1], the IC50 (Table 33C) was under 100 nM. The same measure, in the same setting: in the case of `Cc1cc(Nc2nccc(C(F)(F)F)n2)cc(-c2cnc(C3(O)CC4CCC(C3)C4C(=O)O)s2)c1` (stereo not drawn) [Example 33C-2] it was under 100 nM. Still for that read-out and setting: the result for `Cc1cc(Nc2nccc(C(F)(F)F)n2)cc(-c2cnc(C3(O)C4CCCC3CC(C(=O)O)C4)s2)c1` (stereo not drawn) [Example 33C-3] reads under 100 nM.

On to `Cc1cc(Nc2nccc(C(F)(F)F)n2)cc(-c2cnc(C3(O)CC[C@H]4C(C(=O)O)[C@H]43)s2)c1` (stereo partly drawn) [Example 33C-6], for which, under “Table 33C”, the IC50 is under 100 nM. The same measure, in the same setting: the result for `Cc1cc(Nc2nccc(C(F)(F)F)n2)cc(-c2cnc(C3(O)C[C@@H]4C(C(=O)O)[C@@H]4C3)s2)c1` (stereo partly drawn) [Example 33C-9] reads under 100 nM; that for `CCOC(=O)C1[C@H]2CC(O)(c3ncc(-c4cc(C)cc(Nc5nccc(C(F)(F)F)n5)c4)s3)C[C@@H]12` (stereo partly drawn) [Example 33C-11], under 100 nM; that for `Cc1cc(Nc2nccc(C(F)(F)F)n2)cc(-c2cnc(C3(O)CNC3)s2)c1` [Example 33C-13], under 100 nM. With `Cc1cc(Nc2nccc(C(F)(F)F)n2)cc(-c2cnc(C3(O)CCN(c4ncccc4C(=O)O)CC3)s2)c1` [Example 33C-15], the IC50 (Table 33C) was under 100 nM. With `CCOC(=O)c1cccnc1N1CCC(O)(c2ncc(-c3cc(C)cc(Nc4nccc(C(F)(F)F)n4)c3)s2)CC1` [Example 33C-16], under “Table 33C”, the 50% inhibitory concentration (IC50) was 100 to 1000 nM. Turning to `Cc1cc(Nc2nccc(C)n2)cc(-c2cnc(C3(O)CCC4(CC3)OCCO4)s2)c1` [Example 33C-17], the half-maximal inhibitory concentration (IC50) (Table 33C) is under 100 nM.

Turning to `Cc1cc(Nc2nccc(C)n2)cc(-c2cnc(C3(O)CC4CCC3CC4C(=O)O)s2)c1` (stereo not drawn) [Example 33C-18], the half-maximal inhibitory concentration (IC50) (Table 33C) is under 100 nM.

Turning to `Cc1cc(Nc2nccc(C(F)(F)F)n2)cc(-c2cnc(C(C)(O)CCC(C)(C)C(=O)O)s2)c1` (stereo not drawn) [Example 33D-1], under “Table 33D”, the IC50 was under 100 nM.

Regarding `COC(=O)C(C)(C)CCC(C)(O)c1ncc(-c2cc(C)cc(Nc3nccc(C(F)(F)F)n3)c2)s1` (stereo not drawn) [Example 33D-4], the IC50 (Table 33D) was under 100 nM. On the same count and under the same terms, in the case of `Cc1cc(Nc2nccc(C(F)(F)F)n2)cc(-c2cnc(C(C)(O)COC(C)(C)C(=O)O)s2)c1` (stereo not drawn) [Example 33D-7] it was under 100 nM; in that of `COC(=O)C(C)(C)OCC(C)(O)c1ncc(-c2cc(C)cc(Nc3nccc(C(F)(F)F)n3)c2)s1` (stereo not drawn) [Example 33D-8], under 100 nM; in that of `Cc1cc(Nc2nccc(C(F)(F)F)n2)cc(-c2cnc(C(C)(O)CC(C)(C)C(=O)O)s2)c1` (stereo not drawn) [Example 33D-9], under 100 nM. The same measure, in the same setting: in the case of `Cc1cc(Nc2nccc(C(F)(F)F)n2)cc(-c2cnc(C(C)(O)CCC(=O)O)s2)c1` (stereo not drawn) [Example 33D-10] it was under 100 nM; in that of `Cc1cc(Nc2nccc(C(F)(F)F)n2)cc(-c2cnc(C(C)(O)c3ccccc3OCC(=O)O)s2)c1` (stereo not drawn) [Example 33D-11], under 100 nM; in that of `Cc1cc(Nc2nccc(C(F)(F)F)n2)cc(-c2cnc(C(C)(O)c3ccc(OCC(=O)O)cc3)s2)c1` (stereo not drawn) [Example 33D-12], under 100 nM. On the same count and under the same terms, the result for `Cc1cc(Nc2nccc(C(F)(F)F)n2)cc(-c2cnc(C(C)(O)c3ccc(OC(C)C(=O)O)cc3)s2)c1` (stereo not drawn) [Example 33D-13] reads under 100 nM; that for `COC(=O)c1ccc(C(C)(O)c2ncc(-c3cc(C)cc(Nc4nccc(C(F)(F)F)n4)c3)s2)cc1` (stereo not drawn) [Example 33D-17], under 100 nM; that for `Cc1cc(Nc2nccc(C(F)(F)F)n2)cc(-c2cnc(C(C)(O)Cc3ccc(C(=O)O)cc3)s2)c1` (stereo not drawn) [Example 33D-18], under 100 nM. Regarding `Cc1cc(Nc2nccc(C(F)(F)F)n2)cc(-c2cnc(C(C)(O)c3c(C)nn(CCC(=O)O)c3C)s2)c1` (stereo not drawn) [Example 33D-19], where the note is “Table 33D”, the half-inhibitory concentration (IC50) is under 100 nM. The same measure, in the same setting: the result for `Cc1cc(Nc2nccc(C(F)(F)F)n2)cc(-c2cnc(C(C)(O)c3ccc(C(=O)O)s3)s2)c1` (stereo not drawn) [Example 33D-20] reads under 100 nM.

`Cc1cc(Nc2nccc(C(F)(F)F)n2)cc(-c2cnc(C(O)C(C)(C)N3CCC(C(=O)O)CC3)s2)c1` (stereo not drawn) [Example 33D-23]: under “Table 33D”, the IC50 is under 100 nM. The same measure, in the same setting: in the case of `Cc1cc(Nc2nccc(C(F)(F)F)n2)cc(-c2cnc(C(O)(c3ccc(/C=C/C(=O)O)cc3)C3CC3)s2)c1` (stereo not drawn) [Example 33D-24] it was under 100 nM; in that of `Cc1cc(Nc2nccc(C(F)(F)F)n2)cc(-c2cnc(C(O)(CCCC(=O)O)c3ccncc3)s2)c1` (stereo not drawn) [Example 33D-25], under 100 nM. As to `CCOC(=O)C1CC=C(c2ncc(-c3cccc(Nc4nccc(C(F)(F)F)n4)c3)s2)CC1` (stereo not drawn) [Example 36A-1], the IC50 (Table 36A) is 100 to 1000 nM. For `Cc1cc(Nc2nccc(C(F)(F)F)n2)cc(-c2cnc(C3=CCC(C(=O)O)CC3)s2)c1` (stereo not drawn) [Example 36A-3], for the setting “Table 36A”, the 50% inhibitory concentration (IC50) is under 100 nM. For `Cc1cc(Nc2nccc(C(F)(F)F)n2)cc(-c2cnc(C3=CC(=O)CC3)s2)c1` [Example 36A-6], the IC50 (Table 36A) is under 100 nM. Still for that read-out and setting: in the case of `Cc1cc(Nc2nccc(C(F)(F)F)n2)cc(-c2cnc(C3=CC(=O)CCC3)s2)c1` [Example 36A-7] it was under 100 nM; in that of `Cc1cc(Nc2nccc(C(F)(F)F)n2)cc(-c2cnc(C3=CC(=O)CCCC3)s2)c1` [Example 36A-9], under 100 nM; in that of `COC(=O)C1CCC(c2ncc(-c3cc(C)cc(Nc4nccc(C(F)(F)F)n4)c3)s2)=CC1(C)C` (stereo not drawn) [Example 36A-11], 100 to 1000 nM.

For the molecule `COC(=O)C1CC=C(c2ncc(-c3cc(C)cc(Nc4nccc(C(F)(F)F)n4)c3)s2)CC1(C)C` (stereo not drawn) [Example 36A-13], the IC50 (Table 36A) was 100 to 1000 nM.

Turning to `Cc1cc(Nc2nccc(C(F)(F)F)n2)cc(-c2cnc(C3CCNC(=O)C3)s2)c1` (stereo not drawn) [Example 36B-1], for the setting “Table 36B”, the IC50 was under 100 nM. On the same count and under the same terms, the result for `Cc1cc(Nc2nccc(C(F)(F)F)n2)cc(-c2cnc(C3=CCNC(=O)CC3)s2)c1` [Example 36B-2] reads under 100 nM. Take `Cc1cc(Nc2nccc(C(F)(F)F)n2)cc(-c2cnc(C3CCCNC(=O)C3)s2)c1` (stereo not drawn) [Example 36B-3]: where the note is “Table 36B”, the concentration for half-maximal inhibition (IC50) was under 100 nM. On the same count and under the same terms, the result for `Cc1cc(Nc2nccc(C(F)(F)F)n2)cc(-c2cnc(C3CCNC(=O)CC3)s2)c1` (stereo not drawn) [Example 36B-4] reads under 100 nM. `[2H]C([2H])([2H])c1cc(Nc2nccc(C(F)(F)F)n2)cc(-c2cnc([C@]3(O)CC[C@H](C(=O)O)CC3)s2)c1` [Example 43-1]: for the setting “table after Example 43”, the IC50 was under 100 nM.
